Where a SMILES comes first, the peptide text is derived from it.
How the values were obtained:
HUVECs [1] = format: cell-based, human; conditions: for toxicity to HUVECs (FIG. 15): MTS assay, 1, 10 or 100 nM, statement for high concentration (100 nM)
Experimental: Cell viability was detected by a methanethiosulfonate (MTS) assay. In brief, 2×10^4 HUVECs were seeded to a 48-well plates in 100 μl endothelial cell medium (ECM, ScienCell Research Laboratory, Cat. 1001, USA) per well and incubated for 24 hrs. The media was removed and the cells were then incubated with media having 2% fetal bovine serum (FBS), in the absence or presence of various peptides, such as PLY, PLY123, PLY4, C70PLY4 or N35PLY4, at a concentration of 1, 10 or 100 nM. After incubation for 18 hours, the media was removed and 20 μl MTS reagents (20%) were added to each well in the final volume of 100 μl and placed in incubator for 1 hours. The optical density was measured at 490 nm using a plate reader.

[2] = system: neointima formation of aorta; experiment: Neointima formation of aorta (HE stain) in STZ-treated HFD-fed rats; format: in vivo
Experimental: The ascending part of aorta were taken from mice, including control health mice and HFD induced diabetic mice, with and without treatment of C70PLY4, and kept in 10% formalin buffered for 24 h. The specimens were routinely embedded in paraffin blocks and cut in transversal sections (3 μm). The slides were stained with hematoxylin and eosin. The specimens were analyzed with light microscope.
The present study determined if C70PLY4 attenuates the status of atherosclerosis in HFD-fed rats.

HUVECs [3] = experiment: Cell apoptosis, TUNEL assay in HUVECs; format: cell-based, human; conditions: positive control of TUNEL and caspase-3 assays
Experimental: Cell apoptosis was detected by using commercial terminal deoxynucleotidyl transferase-dUTP nick end labeling (TUNEL) and caspase-3 activity kits, i.e., Apo-BrdU in Situ DNA Fragmentation Assay Kit (BioVision) and NucView™ 488 Caspase-3 Enzyme Substrate (Biotium). In brief, after incubation with M199 media in the presence or absence of […] various PLY peptides, at 37° C., 5% CO2 for 1 hour, HUVECs were washed with PBS and fixed with fixation buffer on ice for 20 min. Cells were then soaked in 70% alcohol for 1 hr. After 2 times of wash by washing buffer, cells were incubated in DNA labeling solution for 60 min at 37° C. Cells were then treated with rinse buffer and incubated with antibody buffer for 30 min at room temperature. The cell nuclei were stained with propidium iodide for 30 min. Samples were observed by fluorescent microscopeand photographed charge-coupled device (CCD) camera.

MD2/TLR4 interaction = MD2/TLR4 interaction (Homo sapiens, UniProt O00206); experiment: In vitro protein competition binding assay for MD2/TLR4 interaction; conditions: MD2 50 nM, peptide 50 μM to 3.05 nM
MD2/TLR4 interaction, sequence (O00206 24-631): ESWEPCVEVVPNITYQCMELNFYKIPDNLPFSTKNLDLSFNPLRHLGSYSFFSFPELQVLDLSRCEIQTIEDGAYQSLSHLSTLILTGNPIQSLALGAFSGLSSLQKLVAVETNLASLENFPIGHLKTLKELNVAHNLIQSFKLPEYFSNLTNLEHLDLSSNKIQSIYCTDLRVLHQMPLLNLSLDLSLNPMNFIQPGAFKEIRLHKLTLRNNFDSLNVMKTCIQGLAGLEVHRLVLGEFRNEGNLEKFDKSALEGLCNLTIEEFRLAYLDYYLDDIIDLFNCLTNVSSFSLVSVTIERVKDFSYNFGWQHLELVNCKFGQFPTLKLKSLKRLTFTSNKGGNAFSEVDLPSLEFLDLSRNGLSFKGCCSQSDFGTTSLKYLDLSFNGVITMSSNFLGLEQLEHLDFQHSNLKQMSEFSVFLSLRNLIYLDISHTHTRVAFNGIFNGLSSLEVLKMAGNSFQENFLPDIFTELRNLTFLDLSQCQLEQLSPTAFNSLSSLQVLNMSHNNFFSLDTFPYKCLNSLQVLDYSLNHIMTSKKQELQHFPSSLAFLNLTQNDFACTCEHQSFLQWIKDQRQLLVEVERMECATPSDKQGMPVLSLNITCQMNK
Experimental: The recombinant TLR4 protein was diluted in PBS (2 μg/mL) and immobilized on a 96-well (100 ng/well) ELISA plate by incubation at 37° C. for 2 h. The wells were washed three times with PBS, followed by blocking with the addition of 300 μL 5% BSA in PBS at ambient temperature overnight. Then, the plate was rewashed three times with PBST before performed competition binding assay. The binding of MD2 (50 nM) to TLR4 was competed by adding various amounts (2-fold serial dilution from 50 μM to 3.05 nM) of C70PLY4, N35PLY4, or M50PLY4 peptide, and the residual binding was examined using anti-MD2 and anti-mouse-IgG-HRP antibodies diluted in 1% BSA as described in herein.

recombinant TLR4 protein = recombinant TLR4 protein (Homo sapiens, UniProt O00206); experiment: In vitro protein binding assay for MD2 and TLR4 (ELISA); conditions: TLR4 2 μg/mL coated, MD2 133.3 to 0.065 nM; read-out: Kd, binding affinity to the TLR4 protein
recombinant TLR4 protein, sequence (O00206 24-839): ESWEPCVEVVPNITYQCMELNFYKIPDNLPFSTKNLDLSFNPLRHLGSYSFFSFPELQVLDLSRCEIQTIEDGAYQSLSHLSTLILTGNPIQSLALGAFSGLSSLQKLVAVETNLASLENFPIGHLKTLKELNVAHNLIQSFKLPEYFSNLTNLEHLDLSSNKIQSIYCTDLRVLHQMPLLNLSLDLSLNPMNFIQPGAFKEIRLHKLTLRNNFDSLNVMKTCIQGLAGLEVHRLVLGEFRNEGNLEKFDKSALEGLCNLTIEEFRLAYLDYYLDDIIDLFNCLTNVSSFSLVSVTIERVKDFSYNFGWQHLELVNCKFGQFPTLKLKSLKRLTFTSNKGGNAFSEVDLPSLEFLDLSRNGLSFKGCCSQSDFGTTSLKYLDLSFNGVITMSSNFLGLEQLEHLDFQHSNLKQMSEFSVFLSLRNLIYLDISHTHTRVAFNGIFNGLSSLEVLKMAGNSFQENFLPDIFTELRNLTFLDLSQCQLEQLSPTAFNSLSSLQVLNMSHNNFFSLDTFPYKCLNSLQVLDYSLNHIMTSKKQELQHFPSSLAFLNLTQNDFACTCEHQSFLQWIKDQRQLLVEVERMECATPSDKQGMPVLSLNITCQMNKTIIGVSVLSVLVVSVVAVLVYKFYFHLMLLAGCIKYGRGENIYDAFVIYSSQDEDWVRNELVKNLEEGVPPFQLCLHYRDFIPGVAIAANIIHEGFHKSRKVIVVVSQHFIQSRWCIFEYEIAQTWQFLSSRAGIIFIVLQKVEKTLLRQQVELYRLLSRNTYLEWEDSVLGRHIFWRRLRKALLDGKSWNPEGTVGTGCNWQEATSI
Experimental: The recombinant TLR4 protein was diluted in phosphate buffer saline (PBS) (2 μg/mL) and immobilized on a 96-well (100 ng/well) enzyme-linked immunosorbent assay (ELISA) plate by incubation at 37° C. for 2 h. The wells were washed three times with PBS, followed by blocking with the addition of 300 μL 5% bovine serum albumin (BSA) in PBS at ambient temperature overnight. Then, the plate was washed three times with PBST (PBS with 0.05% Tween 20 solution) before the addition of the recombinant MD2 protein solutions at various concentrations (2-fold serial dilution from 133.3 to 0.065 nM). The ligands (MD2) and TLR4 proteins were incubated at 37° C. for 2 h, and the plate was then washed three times with PBST, followed by the addition of 100 μL anti-MD2 antibodies diluted in 1% BSA (1:1000). After incubation at ambient temperature for 1 h, the plate was washed with PBST three times, followed by the addition of 100 μL anti-mouse IgG-HRP antibodies diluted in 1% BSA (1:2000). After incubation at ambient temperature for 1 h, the plate was washed with PBST three times, followed by the addition of 100 μL of the HRP substrate (i.e. 3,3′,5,5′-tetramethylbenzidine, TMB) to each well. […] The optical density (OD450) in each well was determined using an ELISA plate reader. […]

TLR4 = experiment: LPS-induced PMN transendothelial migration, PMNs from wild type C3H/HeN mice; format: cell-based; conditions: for LPS induced PMN migration (FIGS. 11-12): WT mice model
Experimental: (§1) To obtain mice neutrophils from TLR4-deficient [TLR4(−/−)] C3H/HeJ mice and wild type C3H/HeN mice, inflammation was induced by 0.1 ml of uric acid solution into the peritoneal cavity of the mouse. The uric acid solution (noncrystalline form) was prepared by mixing with saline (10% [wt/vol]) and sonicated for 10 min. Immediately before inoculation, the milky white precipitated uric acid solution was shaken vigorously. Peritoneal exudate cells were harvested 4, 18, or 24 h after injection by two lavages of the peritoneal cavity with 5 ml of cold phosphate-buffered saline (PBS; total volume, 10 ml). Uric acid-induced peritoneal cells (UAPMN) were washed by centrifugation at 200×g for 10 min at 4° C. Followed by hypotonic lysis to eliminate red blood cells, centrifugation and an additional wash were performed. The cells were then resuspended in Krebs-Ringer phosphate buffer (KRG; pH 7.3). The numbers and populations of peritoneal exudate cells were determined by staining the nuclei with Turk reagent and by cytospin centrifugation followed by May-Grünwald-Giemsa staining, respectively. Uric acid injection into the peritoneal cavity gave a yield of 1 to 2×10^7 cells/mouse depending on time of incubation (4 hr). The levels of purity of the uric acid-induced PMN were 95% after 4 h postinjection. Viability of the isolated neutrophils exceeded 95% as determined by trypan blue exclusion. The PMN from TLR4(−/−) C3H/HeJ mice and wild type C3H/HeN mice were then used for PMN transmigration Assay.
Neutrophils from human were isolated blood that was drawn in a syringe containing preservative-free heparin (20 U/ml final), and mixed with an equal volume of PBS containing 3% dextran and then incubated for 20 min at room temperature. The leukocyte-rich plasma (upper layer) was collected and pellet cells was obtained from the plasma by centrifuge and resuspended in 0.9% NaCl. Layer 10 ml Ficoll-Hypaque solution beneath the cell suspension. After centrifuge 1500×g for 20 min, aspirate the Ficoll-Hypaque layer, leaving the neutrophil/RBC pellet. Cells were subjected to hypotonic lysis by resuspending each neutrophil/RBC pellet in cold 0.2% NaCl for 30 sec. At the end of this period, restore isotonicity by adding ice-cold 1.6% NaCl. After centrifuge, resuspend cells in ice-cold PBS/glucose buffer. Neutrophils from mice were isolated from the peritoneum as previously described. See, e.g., Rabes et al., Curr Top Microbiol Immunol 397:215-227 (2016). The cell concentration was adjusted to […]. The viability of the isolated neutrophils exceeded 95%, as determined by Trypan blue exclusion.
Transendothelial migration was performed by using a Transwell system. Transwell filters were pre-seeded with HUVEC monolayers for 24 hrs and transferred to clean 24-well plates. HUVECs were washed twice with DPBS, 500 μl of ECM was added to the Transwell filter compartment and 10^6 neutrophils were then added in upper chamber. Transendothelial migration was stimulated by addition of LPS to the lower chamber to a final concentration of 1 μg/ml. Cells were incubated with the endothelial cells for 1 h at 37° C. At the conclusion of the incubation, migrated cells were collected from the lower chamber and counted in a hemacytometer in triplicate. Percent PMN transmigration was calculated by dividing the number of PMN recovered from the lower chamber by the number of PMN initially added.
PMN transendothelial migration plays an important role in early stage of atherogenesis. […].

[4] = system: PMNs isolated from TLR4(−/−) mice C3H/HeJ; experiment: LPS-induced PMN transendothelial migration, PMNs from TLR4(-/-) C3H/HeJ mice; format: cell-based; conditions: LPS 1 μg/ml, HUVEC monolayer Transwell
Experimental: as §1, with “Followed by hypotonic lysis to eliminate red blood cells, centrifugation and an additional wash were performed. The cells were then resuspended in Krebs-Ringer phosphate buffer (KRG; pH 7.3).” left out, “Uric acid injection into the peritoneal cavity gave a yield of 1 to 2×10^7 cells/mouse depending on time of incubation (4 hr). The levels of purity of the uric acid-induced PMN were 95% after 4 h postinjection.” left out, “The PMN from TLR4(−/−) C3H/HeJ mice and wild type C3H/HeN mice were then used for PMN transmigration Assay.” left out
Neutrophils from human were isolated blood that was drawn in a syringe containing preservative-free heparin (20 U/ml final), and mixed with an equal volume of PBS containing 3% dextran and then incubated for 20 min at room temperature. […] The viability of the isolated neutrophils exceeded 95%, as determined by Trypan blue exclusion. […]

Compound: CC[C@H](C)[C@H](NC(=O)[C@H](CCCCN)NC(=O)[C@@H](NC(=O)[C@H](CO)NC(=O)[C@H](CC(C)C)NC(=O)[C@H](CC(N)=O)NC(=O)[C@H](CCCNC(=N)N)NC(=O)[C@@H](NC(=O)[C@H](CC(N)=O)NC(=O)CNC(=O)[C@H](CCCCN)NC(=O)[C@H](CC(C)C)NC(=O)[C@@H]1CCCN1C(=O)[C@@H](NC(=O)[C@H](CO)NC(=O)[C@@H](NC(=O)[C@@H](NC(=O)[C@H](Cc1ccccc1)NC(=O)[C@H](Cc1c[nH]cn1)NC(=O)[C@H](C)NC(=O)[C@@H](NC(=O)[C@H](CC(C)C)NC(=O)[C@H](CC(=O)O)NC(=O)[C@@H](N)CCC(N)=O)[C@@H](C)O)[C@@H](C)O)[C@@H](C)O)[C@@H](C)CC)C(C)C)C(C)C)C(=O)N[C@@H](CCCNC(=N)N)C(=O)N[C@@H](CCC(=O)O)C(=O)N[C@@H](CS)C(=O)N[C@H](C(=O)NCC(=O)N[C@@H](CC(C)C)C(=O)N[C@@H](C)C(=O)N[C@@H](Cc1c[nH]c2ccccc12)C(=O)N[C@@H](CCC(=O)O)C(=O)N[C@@H](Cc1c[nH]c2ccccc12)C(=O)N[C@@H](Cc1c[nH]c2ccccc12)C(N)=O)[C@@H](C)O [N35PLY4] (H-QDLTAHFTTSIPLKGNVRNLSVKIRECTGLAWEWW-NH2)
- toxicity to HUVECs (FIG. 15) (HUVECs [1]): no toxic effects

Compound: CC(=O)N[C@@H](CS)C(=O)O [NAC, N-acetylcycteine, reference compound]
- neointima formation of aorta induced by STZ [2]: partially improve the STZ effect on the neointima formation

Compound: CC[C@@]1(O)C(=O)OCc2c1cc1n(c2=O)Cc2cc3ccccc3nc2-1 [camptothecin, reference compound]
- apoptotic cells (HUVECs [3]): about 60%

Compound: M50PLY4: peptide of 6th to 55th amino acid residues of C70PLY4 (407-456), lacking the N-terminal motif QDLTA, SEQ ID NO: 8 (HFTTSIPLKGNVRNLSVKIRECTGLAWEWWRTVYEKTDLPLVRKRTISIW) [reference compound]
- blocking capability for MD2 and TLR4 protein interaction (in words) (MD2/TLR4 interaction): no competitive capability

Compound: MD2: recombinant MD2 protein, an extracellular protein associated with the extracellular domain of TLR4 protein
- Kd (recombinant TLR4 protein): 0.0184 ± 0.0039 µM

Compound: N35PLY4m24L25K: N35PLY4 with double mutations, position 24 I to L and position 25 R to K, SEQ ID NO: 7 (QDLTAHFTTSIPLKGNVRNLSVKLKECTGLAWEWW)
- LPS induced PMN migration (FIGS. 11-12) (TLR4): inhibitory effects

Compound: N35PLY4m25K (QDLTAHFTTSIPLKGNVRNLSVKIKECTGLAWEWW)
- LPS induced PMN migration (FIGS. 11-12) (TLR4): inhibitory effects

Compound: full-length PLY: full length pneumococcal pneumolysin, 1-471 amino acid residues, SEQ ID NO: 1, prepared by recombinant technology [reference compound]
- PMNs migration, TLR4(−/−) mice model (FIG. 10) [4]: did not affect the PMNs migration
- PMNs migration, WT mice model (FIG. 10) (TLR4; PMNs from C3H/HeN mice, LPS 1 μg/ml, HUVEC monolayer Transwell): did not affect the PMNs migration
- LPS induced PMN migration (FIGS. 11-12) (TLR4): enhances PMN migration induced by LPS
- cells survived (HUVECs [1]; HUVECs, 100 nM, 18 hours, MTS): 30%
- toxicity to HUVECs (FIG. 15) (HUVECs [1]): toxic to cells

Reference: patent publication US10287328B2, “Treatment of diabetes, toll-like receptor 4 modulators and methods for using the same” (KeMyth Biotech Co., Ltd., priority 2016, dated 2019)
